According to US9840515B2, “Protein kinase D inhibitors” (University of Pittsburgh—Of the Commonwealth System of …, priority 2010, dated 2017):
Structures can show the parent of a compound that is named as a salt. Where two headings read alike, the source gives them in different places.

Columns and labels:
[1] = target: T1, purified recombinant human PKD1 (Homo sapiens, UniProt Q15139); experiment: radiometric PKD kinase activity assay; assay type: biochemical
T1 sequence (Q15139 1-912): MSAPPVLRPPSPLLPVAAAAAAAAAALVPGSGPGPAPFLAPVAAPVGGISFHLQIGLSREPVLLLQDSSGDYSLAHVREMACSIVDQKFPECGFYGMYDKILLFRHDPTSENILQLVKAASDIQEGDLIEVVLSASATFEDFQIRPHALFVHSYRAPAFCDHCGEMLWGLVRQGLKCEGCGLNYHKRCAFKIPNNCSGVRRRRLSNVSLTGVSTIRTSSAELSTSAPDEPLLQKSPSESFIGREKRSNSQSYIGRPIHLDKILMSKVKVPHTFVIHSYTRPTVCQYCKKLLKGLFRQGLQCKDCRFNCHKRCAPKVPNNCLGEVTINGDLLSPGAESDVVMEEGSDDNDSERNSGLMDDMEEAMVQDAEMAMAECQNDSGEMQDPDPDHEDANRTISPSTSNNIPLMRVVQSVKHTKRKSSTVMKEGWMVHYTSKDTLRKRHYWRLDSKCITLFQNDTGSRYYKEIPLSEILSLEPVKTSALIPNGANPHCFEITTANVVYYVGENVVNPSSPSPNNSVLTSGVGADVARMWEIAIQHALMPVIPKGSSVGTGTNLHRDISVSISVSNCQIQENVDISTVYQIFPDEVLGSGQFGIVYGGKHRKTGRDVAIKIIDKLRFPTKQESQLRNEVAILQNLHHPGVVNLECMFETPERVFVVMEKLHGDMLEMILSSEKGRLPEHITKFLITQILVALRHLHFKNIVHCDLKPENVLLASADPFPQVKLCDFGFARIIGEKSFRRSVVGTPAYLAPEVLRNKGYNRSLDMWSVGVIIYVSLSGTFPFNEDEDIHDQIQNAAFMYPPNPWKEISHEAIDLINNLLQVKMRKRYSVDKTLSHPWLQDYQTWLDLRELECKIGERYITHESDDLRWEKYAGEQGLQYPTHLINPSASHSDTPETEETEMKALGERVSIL
Procedure: The radiometric PKD kinase assay was carried out by co-incubating 0.5 μCi γ-32P-ATP (PerkinElmer, Boston, Mass.), 20 μM ATP, 50 ng purified recombinant human PKD (PKD1, PKD2, PKD3) proteins, and 2.5 μg Syntide-2 (Sigma) in 50 μl kinase buffer that contains 50 mM Tris-HCl, pH 7.5, 4 mM MgCl2, 10 mM β-mercaptoethanol. The reaction was carried out under sub-saturation conditions, such that the initial rate was within linear kinetic range. The reaction mixture was incubated at 30° C. for 10 min, followed by spotting 25 μl of the mix onto a Whatman P81 filter paper (Whatman Inc, Clifton, N.J.). The filter papers were then washed three times in 0.5% phosphoric acid, air-dried, and counted using a Beckman LS6500 multi-purpose scintillation counter (Beckman, Fullerton, Calif.).

[2] = read-out: IC50 radiometric PKD1

melting point	SMILES	also measured
247 to 249 °C	O=C1NCCSc2c1sc1ccc(OCc3ccccc3)cc21 [kb-NB123-66, 3,4-Dihydro-9-benzyloxy-[1]benzothieno[2,3-f]-1,4-thiazepin-5(2H)-one]	–
160 to 163 °C (dec.)	O=C1NCCSc2c1[s+]([O-])c1ccc(O)cc21 (centres unmarked) [kb-NB184-22, 3,4-Dihydro-9-hydroxy-6-oxide-[1]benzothieno[2,3-f]-1,4-thiazepin-5(2H)-one]	–
160 to 161 °C	COc1ccc2sc3c(c2c1)SCCN(C)C3=O [kb-NB165-16, 2,3-Dihydro-4-Methyl-9-methoxy-[1]benzothieno[2,3-f]-1,4-thiazepin-5(2H)-one]	IC50 [1, 2]: 4570 ± 780 nM
269 to 272 °C (dec.)	O=C1NCCSc2c1sc1c(O)cccc21 [kb-NB184-40, 3,4-Dihydro-7-hydroxy-[1]benzothieno[2,3-f]-1,4-thiazepin-5(2H)-one]	–
213 to 215 °C	O=C1NCCSc2c1sc1c(OCc3ccccc3)cccc21 [kb-NB184-38, 3,4-Dihydro-7-benzyloxy-[1]benzothieno[2,3-f]-1,4-thiazepin-5(2H)-one]	–
209 to 212 °C	CC(C)(C)[Si](C)(C)Oc1ccc2oc3c(c2c1)CCCNC3=O	–
168 to 172 °C	COc1ccc2oc3c(c2c1)CCN(C)C3=O [kb-NB123-37, 6-Methoxy-2-methyl-2,3,4-trihydrobenzo[b]pyridino[4,3-d]furan-1-one]	–
198 to 200 °C	C=CCOc1ccc2oc3c(c2c1)CCCNC3=O [kb-NB77-84, 7-Allyloxy-2,3,4,5-tetrahydro-[1]benzoxolo[2,3-c]azepin-1-one]	IC50 ([1]; radiometric kinase activity assay, in vitro, read-out: IC50 PKD1): 123 nM
335.9 °C (dec.)	O=C1NCCSc2c1sc1cnc(O)nc21 (as salt: hydrochloride) [kmg-NB4-69A, 2-Hydroxy-7H,8H,9H-1,4-thiazepino[7′,6′-5,4]thiopheno[3,2-d]pyrimidin-6-one]	–
288 °C (dec.)	COc1nc(OC)c2sc3c(c2n1)SCCNC3=O [kmg-NB5-13C, 2,4-Dimethoxy-7H,8H,9H-1,4-thiazepino[7′,6′-5,4]thiopheno[3,2-d]pyrimidin-6-one]	–
116 to 120 °C	COC(=O)c1sc2ccc(OC)cc2c1NCCCO [kb-NB184-80, Methyl 3-(3-hydroxypropylamino)-5-methoxybenzo[b]thiophene-2-carboxylate]	IC50 radiometric PKD1 [1]: not inhibitory
150 to 151 °C	COc1ccc2oc3c(c2c1)CCCN(C)C3=O [kb-NB96-04, 7-Methoxy-2-methyl-3H,4H,5H-azepino[5,6-d]benzo[b]furan-1-one]	–
198 to 199 °C	O=C1NCCCSc2c1sc1ccc(OCc3ccccc3)cc21 [kb-NB165-89, 2,3,4,5-Tetrahydro-10-benzyloxybenzo[b]thieno[2,3-f]-1,5-thiazocin-6-one]	IC50 [1, 2]: 21700 nM
282 to 284 °C	CN1CCCc2c(oc3ccc(O)cc23)C1=O [kb-NB142-25, 7-Hydroxy-2-methyl-3,4,5-trihydro-[1]benzoxolo[2,3-c]azepin-1-one]	–
211 to 213 °C	O=c1oc2ccc(O)c(Cl)c2c2c1NCCC2 [kb-NB96-47-1, 10-Chloro-9-hydroxy-1,2,3,4-tetrahydrochromeno[3,4-b]pyridin-5-one]	–
220 to 224 °C	COc1cccc2c3c(sc12)C(=O)NCCS3 [kb-NB184-44, 3,4-Dihydro-7-methoxy-[1]benzothieno[2,3-f]-1,4-thiazepin-5(2H)-one]	–

melting point	SMILES	also measured
117 to 119 °C	CC(C)(C)[Si](C)(C)Oc1ccc2oc(=O)c3c(c2c1)CCCN3	–
90 to 91 °C	C=CCOc1ccc2oc(=O)c3c(c2c1)CCCN3 [kb-NB77-83, 9-Allyloxy-1,2,3,4-tetrahydrochromeno[3,4-b]pyridin-5-one]	–
182 to 184 °C (dec.)	Oc1ccc2sc3c(c2c1)SCCNC3 [kb-NB165-83, 2,3,4,5-Tetrahydro-9-hydroxy-[1]benzothieno[2,3-f]-1,4-thiazepine]	IC50 [1, 2]: 16400 nM
233 to 237 °C	COc1ccc2sc3c(c2c1)OCCCNC3=O [kb-NB184-57, 2,3,4,5-Tetrahydro-10-methoxybenzo[b]thieno[2,3-f]-1,5-oxazocin-6-one]	–
295 °C (dec.)	COc1nc(O)c2sc3c(c2n1)SCCNC3=O [kmg-NB5-15A, 4-Hydroxy-2-methoxy-7H,8H,9H-1,4-thiazepino[7′,6′-5,4]thiopheno[3,2-d]pyrimidin-6-one]	IC50 [1, 2]: > 30000 nM
284 to 287 °C	COc1ccc2c(c1)c1c([s+]2[O-])C(=O)NCCS1 (centres unmarked) [kb-NB184-25, 3,4-Dihydro-9-methoxy-6-oxide-[1]benzothieno[2,3-f]-1,4-thiazepin-5(2H)-one]	IC50 [1, 2]: 1080 nM
229 to 230 °C (dec.)	O=C(CCl)Nc1ccc2sc3c(c2c1)SCCNC3=O [mcf292-09, 3,4-Dihydro-9-(2-chloroacetamido)-[1]benzothieno[2,3-f]-1,4-thiazepin-5(2H)-one]	IC50 [1, 2]: 1500 nM
230 to 232 °C (dec.)	Oc1ccc2oc3c(c2c1)CCCN1CCN=C31 [kb-NB165-15, 5H,6H,7H-Benzo[b]2-imidazolino[1′,2′-7,1]azepino[5,6-d]furan-9-ol]	IC50 PKD1 ([1]; radiometric kinase activity assay, in vitro): No inhibition
265 to 268 °C	O=C1NCCc2c1oc1ccc(O)cc21 [kb-NB123-23A, 6-Hydroxy-2,3,4-trihydrobenzo[b]pyridino[4,3-d]furan-1-one]	–
235 to 238 °C (dec.)	O=C1NCCSc2c1sc1ccc(O)c(Br)c21 [kb-NB184-52, 3,4-Dihydro-9-hydroxy-10-bromo-[1]benzothieno[2,3-f]-1,4-thiazepin-5(2H)-one]	IC50 [1, 2]: 48 nM
235 to 237 °C	O=C(OCc1ccccc1)N1CCCc2c1c(=O)oc1ccc(O)cc21 [kb-NB77-91, Phenylmethyl 9-hydroxy-5-oxo-1,2,3,4-tetrahydrochromeno[3,4-b]pyridine-4-carboxylate]	–
261 to 263 °C	COc1ccc2oc3c(c2c1)CCCNC3=O [kb-NB77-56, 7-Methoxy-2,3,4,5-tetrahydro-[1]benzoxolo[2,3-c]azepin-1-one]	–
155 to 157 °C	CC(=O)Oc1ccc2oc3c(c2c1)CCCN(C(C)=O)C3=O [kb-NB123-45-1, 2-Acetyl-1-oxo-3H,4H,5H-azepino[5,6-d]benzo[b]furan-7-yl acetate]	–
215 to 217 °C	COc1ccc2sc3c(c2c1)[S+]([O-])CCNC3=O (centres unmarked) [kb-NB184-45, 3,4-Dihydro-9-methoxy-1-oxide-[1]benzothieno[2,3-f]-1,4-thiazepin-5(2H)-one]	–
195 to 200 °C	O=C1NCCCOc2c1sc1ccc(OCc3ccccc3)cc21 [kb-NB184-36, 2,3,4,5-Tetrahydro-10-benzyloxybenzo[b]thieno[2,3-f]-1,5-oxazocin-6-one]	–

SMILES	melting point	also measured
O=C1NCCSc2c1sc1ccc(N=C=S)cc21 [mcf292-05, 3,4-Dihydro-9-isothiocyanato-[1]benzothieno[2,3-f]-1,4-thiazepin-5(2H)-one]	253 to 253.3 °C	IC50 [1, 2]: 2770 nM
CC(=O)Oc1ccc2oc3c(c2c1)CCCNC3=O [kb-NB123-36, 7-Acetoxy-2,3,4,5-tetrahydro-[1]benzoxolo[2,3-c]azepin-1-one]	196 to 197 °C	–
